The solubility is the concentration that dissolves in the medium under given conditions.

The nature of series [1]: Solubility of the crystalline form. It counts as physicochemical. To be noted: for solubility: thermodynamic from solid. The method, then: Solubility in simulated gastric fluid (SGF), fasted state simulated intestinal fluid (FaSSIF), and fed state simulated intestinal fluid (FeSSIF) was 0.019 mg/ml, 0.006 mg/mL, and 0.022 mg/mL, respectively. Solubility increased 50-100-fold in the presence of surfactants (e.g., Tween-80, sodium dodecyl sulfate, dioctyl sulfosuccinate, or Pluronic F68) and cyclodextrins; however it was still rather low.

A short description of series [2]: Preliminary solid state stability (UPLC analysis). In kind it is physicochemical. The method, then: A defined amount of the crystalline form of the free base of the compound of Formula I (0.2-0.8 mg) was weighed into a 1.8 mL HPLC vial and stored open (75% RH) or closed (ambient) at the temperature and the time indicated. After incubation, compound was dissolved in 1-1.5 mL NMP to a final concentration of 0.2-0.5 mg/mL and submitted to UPLC analysis (254 nm).

The nature of series [3]: Preliminary forced degradation study (acidic, basic, oxidative, photolytic stress; excipient compatibility). It counts as physicochemical. As to the method:
Stability: Preliminary forced degradation study of the crystalline form of the free base of the compound of Formula I in acidic, basic, oxidative, and photolytic stress conditions was conducted to investigate the viability of the crystalline form in various stress conditions. Since the solubility of the compound of Formula I was low in the standard solvent ethanol, ethanol was replaced by N-methyl-2-pyrrolidone (NMP).
The crystalline form of the free base of the compound of Formula I was stable for up to 8 days in solid state at 80° C. and in solution at pH 3 to pH 7 at RT. […] The crystalline form was stable after exposure to light in solid state.

The nature of series [4]: Stability in suspension vehicle and parenteral formulation. In kind it is physicochemical. To be noted: 0.5% HPC/1% Tween 80, up to 5 weeks at RT. As to the method: For parenteral administration, a 30% Kleptose formulation (1.5 mg/ml, physiologic osmolality, pH 6.2), with a stability of at least 4 weeks at 40° C. was developed.
Series [5] in a line: Thermodynamic stability of crystalline form. In kind it is physicochemical. Conditions: at least between 20° C. and 60° C.
For series [6], the system named is SD rats. Description: Oral glucose tolerance test, second study (acute treatment). In kind it is in vivo, rat. To be noted: 10 mg/kg; for Glucose tolerance (oral glucose tolerance test): glucose 2 g/kg per os 1 hour post treatment. The method, then: The second study assessed the impact of acute treatment with the compound of Formula I. The study was conducted on 9-week male SD rats, which were fed with chow diet.

For series [7], the system named is SD rats. The experiment in a line: Oral glucose tolerance test, third study (sub-chronic, 8 days, alone or in combination). In kind it is in vivo, rat. The method, then: The third study evaluated sub-chronic (8 days) effects of the compound of Formula I alone or in combination with Olanzapine. […] The insulin was measured at time 0 only.
Series [8] has as its system SD rats. The experiment in a line: Oral glucose tolerance test, first study (acute treatment). To be noted: 3 and 10 mg/kg.
Procedure: The study was conducted on 10-week male SD rats fed with chow diet. The glucose challenge was performed 1 hour post last treatment. The glucose load was done per os per gavage (2 g/kg BW), and the formulation was made in saline. The blood glucose and plasma insulin were measured at 0 (before challenge), +15, +30, +60 and +120 minutes. Blood was sampled in EDTA coated tubes, and the blood samples were kept on ice until centrifuged at 4° C. ELISA for Insulin (Mercodia, Uppsala Sweden) and Fluorometric for measuring glucose (AccuCheck System) were used for the analysis. Data Analysis was done using the software JMP for Windows (Version 5.01, SAS institute Inc., SAS Campus Drive, Cary, NC 27513). Analysis of Variance ANOVA (alpha 0.05 and 0.01) followed by Dunnett's test (comparison vs. Control).
For series [9], the system named is adult male patients with COFD. Description: Study A: open-label Phase IIa 6-week study of safety and efficacy in COFD. In kind it is in vivo, human. To be noted: 5 to 15 mg, once daily, oral; study design criterion. As to the method:
Provided below is an open-label, Phase IIa, multi-center, 6-week prospective study to evaluate the safety and efficacy of the compound of Formula I at a daily dose range of 5 mg to 15 mg in adult male patients with COFD.

≈ marks a conversion by molar mass, not a printed value. Like-named read-outs stand apart in the source and are kept apart here.

For `Cn1ncc(C(=O)N2CCOCC2)c1C(=O)Nc1ccn2nc(-c3ccccc3)nc2c1` [1-methyl-4-(morpholine-4-carbonyl)-N-(2-phenyl[1,2,4]triazolo[1,5-a]pyridin-7-yl)-1H-pyrazole-5-carboxamide], the solubility was less than 4 µg/mL in series [1] (aqueous solutions, 22 °C, aqueous buffer, pH>3, read-out: Solubility in aqueous solutions); 6 µg/mL (≈ 13.9 µM) in [1] (fasted state simulated intestinal fluid (FaSSIF), 22 °C, fassif, read-out: Solubility in fasted state simulated intestinal fluid (FaSSIF)); 22 µg/mL (≈ 51 µM) in series [1] (fed state simulated intestinal fluid (FeSSIF), 22 °C, fessif, read-out: Solubility in fed state simulated intestinal fluid (FeSSIF)); less than 50000 µg/mL in [1] (organic solvents, organic solvent or mixture, ambient temperature (22° C.), read-out: Solubility in most of the tested organic solvents); 19 µg/mL (≈ 44 µM) in series [1] (simulated gastric fluid (SGF), 22 °C, simulated gastric fluid, read-out: Solubility in simulated gastric fluid (SGF)). Moreover, the Solubility increase in series [1] (in the presence of surfactants (e.g., Tween-80, sodium dodecyl sulfate, dioctyl sulfosuccinate, Pluronic F68) and cyclodextrins) is 50-100 fold. Further, the “UPLC analysis (Area % main peak)” value in series [2] (4 w 60° C.) is on record as 100 Area %; in [2] (4 w, 4° C.), 100 Area %; in [2] (4 w, 40° C.), 100 Area %; in [2] (4 w, 40° C., 75% RH), 100 Area %; in series [2] (4 w, RT), 100 Area %; in [2] (1 h, 80° C.) it was 100 Area %. Also, the “UPLC analysis (Area % main peak)” value in series [2] (1 d, 80° C.) came out at 100 Area %; in [2] (8 d, 80° C.), 100 Area %. Moreover, the “Time stable in solid state” value in series [2] (40-60° C.) is on record as “at least 4 weeks”. The molecule also showed a Degradation products in series [2] (solid state, various temperatures) of less than 0.5%. For the same molecule, the “Excipient compatibility (CompaS assay)” value in series [3] is given as “compatible with almost all excipients”. Further, the Stability towards oxidation result in series [3] (1 day) is reported as “stable”; in [3] (prolonged exposure), “some sensitivity”. Further, in series [3] (in solution), the Stability towards daylight entry is on record as “stable”. Further, the “Stability in the Suntest” value in series [3] (in solution, time dependent) is listed as “moderately stable to unstable”. The Stability in solution result in series [3] (pH 3 to pH 7 at RT) is “stable”. Moreover, the “Stability in solution at higher or lower pH” value in series [3] (pH above 7 or below 3) is listed as “degradation was observed”. The “Stability after exposure to light” value in series [3] (solid state) is on record as “stable”. Further, the “Stability in solid state” value in [3] (up to 8 days, 80° C.) is on record as “stable”. The “Particle growth and hydrate formation in suspension vehicle” value in series [4] was “only minor particle growth and no hydrate formation”. Moreover, the “Stability in suspension vehicle” value in [4] is given as “stable”. Besides, the Thermodynamic stability result in [5] was “thermodynamically stable”.

Turning to `Cc1cc2c(s1)Nc1ccccc1N=C2N1CCN(C)CC1` [Olanzapine, 2-Methyl-4-(4-methyl-1-piperazinyl)-10H-thieno[2,3-b][1,5]benzodiazepine], the “Glucose tolerance (oral glucose tolerance test)” value (“Glucose tolerance” below) in [6] was “glucose intolerance”; in series [7] (acute treatment, 10 mg/kg, glucose 2 g/kg per os), “glucose intolerance”; in series [8] (glucose 2 g/kg per os 1 hour post treatment) it was “dose-dependent glucose intolerance”. Further, the Fasting blood glucose entry in series [6] (male SD rats) is on record as “increase”; in series [7] (acute treatment, 10 mg/kg, male SD rats), “increase”; in series [8] (male SD rats) it was “dose-dependent increase”. In series [8] (male SD rats), the Fasting insulin entry was “dose-dependent increase”.

Turning to `Cn1ncc(C(=O)N2CCOCC2)c1C(=O)Nc1ccn2nc(-c3ccccc3)nc2c1` [compound of Formula I, 1-methyl-4-(morpholine-4-carbonyl)-N-(2-phenyl[1,2,4]triazolo[1,5-a]pyridin-7-yl)-1H-pyrazole-5-carboxamide], the “Glucose tolerance” value in series [6] is given as “did not induce any change”. Moreover, in series [7] (repeated treatment, 8 days, 0.3 mg/kg), the Fasting blood glucose entry is reported as “no change”. The “Glucose tolerance” value in [7] (repeated treatment, 8 days, 0.3 mg/kg, alone) is reported as “slight glucose tolerance improvement”. Also, in series [9], the “Key secondary: Subject-rated Self Assessment of Stuttering” value is “Key secondary: Superior efficacy on the Subject-rated Self”; the “Safety: effect on blood glucose and lipids” value is “No or minimal effect on blood glucose and lipids”; the “Safety: patients with significant weight gain (greater than 7% versus baseline)” value was “Less than 5% of patients with significant weight gain (greater”; the “Secondary: percent of patients with stuttering freedom” value is recorded as “Secondary: Superior percent of patients with stuttering”.

The values are drawn from patent US20230381193A1, “METHODS FOR THE TREATMENT OF CHILDHOOD-ONSET FLUENCY DISORDER” (Noema Pharma AG, priority 2021, published 2023).
